The conditions of data set [1]: with administration of cimetidine, concomitant use with ketoconazole; cited from earlier work.
For data set [2], the system named is carriers on the epithelial cells of the small intestines. The following applies: cefadroxil concomitantly administered with cefalexine; cited from earlier work.
Data set [3] relates to CYP3A4. The data set is described as follows: Test Example 3: midazolam plasma AUC in dogs, alone or with concomitant diltiazem. The settings on record: male, beagle, dog, po, 4 mg/dog.
Protocol: The aqueous solution for oral administration containing midazolam was orally administered (4 mg/dog) using a catheter for oral administration to a male beagle dogs (n=3) that had been fasted for approximately 20 hours.
Data set [4] has as its system CYP3A4. The data set is described as follows: Test Example 2: midazolam plasma AUC in dogs, alone or with concomitant conivaptan. The following applies: male, beagle, dog, po, 4 mg/dog.
Protocol: The following experiments were conducted using midazolam, which is metabolized CYP3A4, as a concomitant drug of conivaptan hydrochloride.
(§1) (1) Aqueous solution for oral administration containing midazolam: After preparing commercial midazolam injectable liquid (brand name: Dormicum® injection) to a concentration of 0.2 mg/ml with aqueous hydrochloric acid solution (pH of 3), HPMC2910 was added at 3-times the amount of midazolam to obtain a liquid for oral administration.
After administration, blood was collected from the veins of the front legs and the plasma concentration of midazolam was determined by the HPLC/UV method over time.
Thirty minutes after administration the aqueous solution for oral administration containing midazolam was orally administered using a catheter for oral administration (4 mg/dog). After midazolam administration, blood was collected from the veins of the front legs and the plasma concentration of midazolam was determined by the HPLC/UV method over time.
Thirty minutes after administration an aqueous solution for oral administration containing midazolam (4 mg/dog) was orally administered using a catheter for oral administration. After midazolam administration, blood was collected from the veins of the front legs and the plasma concentration of midazolam was determined by the HPLC/UV method over time.
For data set [5], the system named is CYP3A4. The data set is described as follows: Test Example 4: midazolam plasma AUC in dogs, alone or with concomitant ketoconazole. The following applies: male, beagle, dog, po, 4 mg/dog.
Protocol: as §1
The aqueous solution for oral administration containing midazolam was orally administered(4 mg/dog) using a catheter for oral administration to male beagle dogs (n=2) that had been fasted for approximately 20 hours.

The structures appear in SMILES notation.

For `CN/C(=N/CCSCc1nc[nH]c1C)NC#N` [cimetidine], the “gastric pH” value in data set [1] is listed as 3 to 5.

On to `CC1=C(C(=O)O)N2C(=O)[C@@H](NC(=O)[C@H](N)c3ccc(O)cc3)[C@H]2SC1` [cefadroxil], for which the “change in cefadroxil plasma concentration” value in data set [2] was “reduction by approximately half”.

What is called AUC is the area under the concentration-time curve, a measure of exposure. Higher therefore signals more exposure. Take `Cc1ncc2n1-c1ccc(Cl)cc1C(c1ccccc1F)=NC2` [midazolam]: the area under the curve (AUC) in the data set with CYP3A4 [3] was determined as 55 ng·h/mL; in the data set on CYP3A4 [4], 9 ± 6 ng·h/mL; in the data set with CYP3A4 [5], 68.7 ng·h/mL.

Source of the values: US6761895B2, “Drug delivery system for averting pharmacokinetic drug interaction and method thereof” (priority 2000, dated 2004).
